# Measured values from PubChem BioAssay (NCI).
#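 Cultured in 96-well plates, cells were exposed to test compound for 48 hours across five concentrations. The concentration for full growth arrest is given as TGI.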
# Key:
# Assay in all cases: NCI anticancer screen, dose series, 48 h
# [1] = test system: SNB-19 CNS
# [2] = test system: SK-MEL-28 melanoma
# [3] = test system: SK-MEL-2 melanoma
# [4] = test system: HS 578T breast
# [5] = test system: OVCAR-8 ovarian
# [6] = test system: OVCAR-3 ovarian
# [7] = test system: SNB-75 CNS
# [8] = test system: RXF 393 renal
# [9] = test system: NCI-H23 lung
# [10] = test system: HL-60(TB) leukemia
# [11] = test system: KM12 colon
# [12] = test system: NCI/ADR-RES ovarian
# [13] = test system: TK-10 renal
# [14] = test system: UO-31 renal
# [15] = test system: MDA-MB-435
# [16] = test system: HOP-62 NSCLC
# [17] = test system: SK-OV-3 ovarian
# [18] = test system: PC-3 prostate
# [19] = test system: HCT-15 colon
# [20] = test system: A498 renal
# [21] = test system: OVCAR-4 ovarian
# [22] = test system: A549 NSCLC
# [23] = test system: OVCAR-5 ovarian
# [24] = test system: EKVX NSCLC
# [25] = test system: T-47D breast
# [26] = test system: SK-MEL-5 melanoma
# [27] = test system: CCRF-CEM leukemia
# [28] = test system: SF-539 CNS
# [29] = test system: HT29 colon
# [30] = test system: UACC-62 melanoma
# [31] = test system: HCC-2998 colon
# [32] = test system: K-562 leukemia
# [33] = test system: DU-145 prostate
# [34] = test system: MALME-3M melanoma
# [35] = test system: SW-620 colon
# [36] = test system: IGROV1 ovarian
# [37] = test system: SR leukemia
# [38] = test system: M14 melanoma
# [39] = test system: SN12C renal
# [40] = test system: CAKI-1 renal
# [41] = test system: ACHN renal
# [42] = test system: MDA-N
# [43] = test system: HOP-92 NSCLC
# [44] = test system: SF-268 CNS
# [45] = test system: MDA-MB-231 breast
# [46] = test system: HCT-116 colon
# [47] = test system: COLO 205 colon
# [48] = test system: NCI-H226 lung
# [49] = test system: NCI-H522 lung
# [50] = test system: UACC-257 melanoma
# [51] = test system: MOLT-4 leukemia
# [52] = test system: NCI-H460 lung
# [53] = test system: BT-549 breast
# [54] = test system: U251 CNS
# [55] = test system: MCF7 breast
# [56] = test system: SF-295 CNS
# [57] = test system: LOX IMVI melanoma
# [58] = test system: RPMI-8226 leukemia
# [59] = test system: 786-0 renal
structure (smiles),measurement,setting,value
O=c1c2cccnc2oc2c(Cl)cc(-c3nn[nH]n3)cc12,TGI,[1],> 100 µM
same,TGI,[2],> 100 µM
same,TGI,[3],> 100 µM
same,TGI,[4],> 100 µM
same,TGI,[5],> 100 µM
same,TGI,[6],> 100 µM
same,TGI,[7],> 100 µM
same,TGI,[8],> 100 µM
same,TGI,[9],> 100 µM
same,TGI,[10],> 100 µM
same,TGI,[11],> 100 µM
same,TGI,[12],> 100 µM
same,TGI,[13],> 100 µM
same,TGI,[14],> 100 µM
same,TGI,[15],> 100 µM
same,TGI,[16],> 100 µM
same,TGI,[17],> 100 µM
same,TGI,[18],> 100 µM
same,TGI,[19],> 100 µM
same,TGI,[20],> 100 µM
same,TGI,[21],> 100 µM
same,TGI,[22],> 100 µM
same,TGI,[23],> 100 µM
same,TGI,[24],> 100 µM
same,TGI,[25],> 100 µM
same,TGI,[26],> 100 µM
same,TGI,[27],> 100 µM
same,TGI,[28],> 100 µM
same,TGI,[29],> 100 µM
same,TGI,[30],> 100 µM
same,TGI,[31],> 100 µM
same,TGI,[32],> 100 µM
same,TGI,[33],> 100 µM
same,TGI,[34],> 100 µM
same,TGI,[35],> 100 µM
same,TGI,[36],> 100 µM
same,TGI,[37],> 100 µM
same,TGI,[38],> 100 µM
same,TGI,[39],> 100 µM
same,TGI,[40],> 100 µM
same,TGI,[41],> 100 µM
same,TGI,[42],> 100 µM
same,TGI,[43],> 100 µM
same,TGI,[44],> 100 µM
same,TGI,[45],> 100 µM
same,TGI,[46],> 100 µM
same,TGI,[47],> 100 µM
same,TGI,[48],> 100 µM
COc1ccc(NC(=O)CSC(=O)c2ccccc2)c(SCCSSCCSc2cc(OC)ccc2NC(=O)CSC(=O)c2ccccc2)c1,TGI,[49],> 100 µM
same,TGI,[1],> 100 µM
same,TGI,[3],> 100 µM
same,TGI,[4],> 100 µM
same,TGI,[5],> 100 µM
same,TGI,[50],> 100 µM
same,TGI,[51],> 100 µM
same,TGI,[52],> 100 µM
same,TGI,[6],> 100 µM
same,TGI,[7],> 100 µM
same,TGI,[8],> 100 µM
same,TGI,[9],> 100 µM
same,TGI,[10],> 100 µM
same,TGI,[11],> 100 µM
same,TGI,[12],> 100 µM
same,TGI,[13],> 100 µM
same,TGI,[14],> 100 µM
same,TGI,[15],> 100 µM
same,TGI,[53],> 100 µM
same,TGI,[16],> 100 µM
same,TGI,[17],> 100 µM
same,TGI,[18],> 100 µM
same,TGI,[19],> 100 µM
same,TGI,[20],> 100 µM
same,TGI,[21],83.7 µM
same,TGI,[22],> 100 µM
same,TGI,[54],> 100 µM
same,TGI,[55],> 100 µM
same,TGI,[23],> 100 µM
same,TGI,[24],> 100 µM
same,TGI,[25],> 100 µM
same,TGI,[26],> 100 µM
same,TGI,[27],> 100 µM
same,TGI,[28],> 100 µM
same,TGI,[29],> 100 µM
same,TGI,[30],> 100 µM
same,TGI,[33],> 100 µM
same,TGI,[56],> 100 µM
same,TGI,[57],> 100 µM
same,TGI,[34],> 100 µM
same,TGI,[58],> 100 µM
same,TGI,[35],> 100 µM
same,TGI,[36],> 100 µM
same,TGI,[37],> 100 µM
same,TGI,[38],> 100 µM
same,TGI,[39],> 100 µM
same,TGI,[40],> 100 µM
same,TGI,[41],> 100 µM
same,TGI,[42],> 100 µM
same,TGI,[59],> 100 µM
same,TGI,[43],> 100 µM
same,TGI,[44],> 100 µM
same,TGI,[46],> 100 µM
same,TGI,[47],24.2 µM
same,TGI,[48],> 100 µM
